Reference: article PMC5560734, “Diflunisal inhibits prestin by chloride-dependent mechanism” (PLoS ONE, 2017)

Biological target: T1, prestin (SLC26A5) (Mus musculus, UniProt Q99NH7)
T1 construct: endogenous prestin in isolated C57BL/6 mouse outer hair cells
T1 sequence (Q99NH7 1-744): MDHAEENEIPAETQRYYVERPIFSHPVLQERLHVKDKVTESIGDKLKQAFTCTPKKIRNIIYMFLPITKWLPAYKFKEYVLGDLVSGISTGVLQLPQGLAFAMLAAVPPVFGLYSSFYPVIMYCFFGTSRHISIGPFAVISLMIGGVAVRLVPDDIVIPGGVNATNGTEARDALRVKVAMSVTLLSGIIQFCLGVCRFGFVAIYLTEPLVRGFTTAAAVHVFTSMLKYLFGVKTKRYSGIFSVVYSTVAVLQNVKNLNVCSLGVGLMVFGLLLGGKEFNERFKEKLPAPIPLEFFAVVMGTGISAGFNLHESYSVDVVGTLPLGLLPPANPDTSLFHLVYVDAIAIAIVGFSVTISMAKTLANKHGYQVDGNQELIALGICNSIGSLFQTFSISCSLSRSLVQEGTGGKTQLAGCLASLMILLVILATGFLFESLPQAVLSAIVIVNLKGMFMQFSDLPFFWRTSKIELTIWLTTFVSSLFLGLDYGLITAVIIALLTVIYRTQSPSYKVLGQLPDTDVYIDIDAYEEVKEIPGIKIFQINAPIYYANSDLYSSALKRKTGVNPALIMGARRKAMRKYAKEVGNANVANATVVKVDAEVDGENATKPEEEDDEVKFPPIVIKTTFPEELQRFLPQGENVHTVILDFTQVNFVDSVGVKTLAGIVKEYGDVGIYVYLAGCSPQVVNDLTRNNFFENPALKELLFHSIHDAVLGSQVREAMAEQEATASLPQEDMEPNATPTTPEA
Assay: whole-cell patch clamp of outer hair cells, non-linear capacitance / charge transfer (Qmax) at […] intracellular chloride
Format: cell-based

- IC50: 98 µM
Structure (SMILES): O=C(O)c1cc(-c2ccc(F)cc2F)ccc1O [DFL, diflunisal]
